According to ChEMBL document CHEMBL1201862, “PubChem BioAssay data set” (2004):
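Compound exposure: 48 hours, 5 concentrations, 96-well plates. GI50 = concentration required for 50% inhibition of growth.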 Calls of active or inactive are those of the source. Cut-off read from the data, not from the text of the source: active = GI50 up to about 1.1 µM and inactive = higher.

Tests used:
Test in all cases: DTP human tumour cell line panel, 48 h
CCRF-CEM = tested on: CCRF-CEM
HCT-116 = tested on: HCT-116
HCT-15 = tested on: HCT-15
HT-29 = tested on: HT-29
IGROV-1 = tested on: IGROV-1
K562 = tested on: K562
LOX IMVI = tested on: LOX IMVI
M14 = tested on: M14
OVCAR-3 = tested on: OVCAR-3
SF-268 = tested on: SF-268
SF-539 = tested on: SF-539
SK-MEL-28 = tested on: SK-MEL-28
SN12C = tested on: SN12C
SNB-78 = tested on: SNB-78
SW-620 = tested on: SW-620
TK-10 = tested on: TK-10
U-251 = tested on: U-251
UACC-257 = tested on: UACC-257
MDA-MB-435 = tested on: MDA-MB-435
MDA-N = tested on: MDA-N

| SMILES | GI50 (CCRF-CEM) | GI50 (HCT-116) | GI50 (HCT-15) [µM] | GI50 (HT-29) | GI50 (IGROV-1) | GI50 (K562) | GI50 (LOX IMVI) | GI50 (M14) | GI50 (OVCAR-3) | GI50 (SF-268) | GI50 (SF-539) | GI50 (SK-MEL-28) | GI50 (SN12C) | GI50 (SNB-78) | GI50 (SW-620) | GI50 (TK-10) | GI50 (U-251) | GI50 (UACC-257) | GI50 (MDA-MB-435) | GI50 (MDA-N) |
| --- | --- | --- | --- | --- | --- | --- | --- | --- | --- | --- | --- | --- | --- | --- | --- | --- | --- | --- | --- | --- |
| COc1ccc(/C=N/NC(=O)NCCNCCO)cc1 | > 100 µM (inactive) | > 100 µM (inactive) | > 100 | > 100 µM (inactive) | > 100 µM (inactive) | > 100 µM (inactive) | > 100 µM (inactive) | > 100 µM (inactive) | > 100 µM (inactive) | > 100 µM (inactive) | > 100 µM (inactive) | > 100 µM (inactive) | > 100 µM (inactive) | > 100 µM (inactive) | > 100 µM (inactive) | > 100 µM (inactive) | > 100 µM (inactive) | > 100 µM (inactive) | – | – |
| CCCC/C=C1\CCC(CN2CCCC2)C1=O (configuration not stated) | 3.5 µM (inactive) | 14.3 µM (inactive) | 3.13 | 14.5 µM (inactive) | 18.4 µM (inactive) | 2.71 µM (inactive) | 8.09 µM (inactive) | 11.2 µM (inactive) | 17.1 µM (inactive) | 16 µM (inactive) | 16.1 µM (inactive) | 15.7 µM (inactive) | 17.9 µM (inactive) | 26.4 µM (inactive) | 2.07 µM (inactive) | 2.59 µM (inactive) | 6.75 µM (inactive) | 18.1 µM (inactive) | – | – |
| N=C(NNS(=O)(=O)c1ccccc1)Oc1ccc(Br)cc1Br | 71.4 µM (inactive) | > 100 µM (inactive) | > 100 | 55.7 µM (inactive) | > 100 µM (inactive) | 90.6 µM (inactive) | > 100 µM (inactive) | > 100 µM (inactive) | > 100 µM (inactive) | > 100 µM (inactive) | > 100 µM (inactive) | > 100 µM (inactive) | > 100 µM (inactive) | > 100 µM (inactive) | 11.9 µM (inactive) | > 100 µM (inactive) | > 100 µM (inactive) | > 100 µM (inactive) | – | – |
| COc1cc2c(cc1OC)C(Cc1ccc(Oc3cc(CC4c5cc(OC)c(OC)cc5CCN4C)ccc3O)cc1)N(C)CC2 (configuration not stated) | 12.7 µM (inactive) | 10.3 µM (inactive) | 15.6 | 13.1 µM (inactive) | 23.1 µM (inactive) | 10.2 µM (inactive) | 17.4 µM (inactive) | 15.2 µM (inactive) | 19.5 µM (inactive) | 14.2 µM (inactive) | 16.3 µM (inactive) | 16.1 µM (inactive) | 25.8 µM (inactive) | 28.5 µM (inactive) | 16.6 µM (inactive) | 52.7 µM (inactive) | 16.9 µM (inactive) | 16.2 µM (inactive) | – | – |
| CC[C@@]1(OC(=O)CCC(=O)O)C(=O)OCc2c1cc1n(c2=O)Cc2cc3ccccc3nc2-1 | < 0.01 µM (active) | 0.104 µM (active) | 0.472 | 0.366 µM (active) | 0.541 µM (active) | 0.36 µM (active) | 0.0375 µM (active) | 0.0556 µM (active) | 0.91 µM (active) | 0.0395 µM (active) | 0.0281 µM (active) | 1.23 µM (inactive) | 0.0333 µM (active) | 2.77 µM (inactive) | 0.15 µM (active) | 3.65 µM (inactive) | 0.0303 µM (active) | 0.254 µM (active) | 0.435 µM (active) | 1.09 µM (active) |
| COc1cc(C2c3cc4c(cc3[C@@H](Nc3cccc(O)c3)C3COC(=O)[C@H]23)OCO4)cc(OC)c1O (some centres not stated) | 0.425 µM (active) | 1.76 µM (inactive) | 1.93 | 3.33 µM (inactive) | 3.98 µM (inactive) | 1.69 µM (inactive) | 0.703 µM (active) | 2.79 µM (inactive) | 4.04 µM (inactive) | 1.89 µM (inactive) | 1.14 µM (inactive) | 2.81 µM (inactive) | 1.55 µM (inactive) | 6.03 µM (inactive) | 2.8 µM (inactive) | 4.51 µM (inactive) | 2.04 µM (inactive) | 2.05 µM (inactive) | 2.95 µM (inactive) | 2.7 µM (inactive) |
